Test results published in US20120148595A1, “GABA-LINKED ANTHRACYCLINE-LIPID CONJUGATES” (Luitpold Pharmaceuticals, Inc., priority 2009, published 2012).
Converted amounts (≈) assume the structure as drawn. “And” between values parts separate entries of the source, which are not always exact repeats. Equal values may be shown once. “Also recorded” adds a separate entry of the source. Read-outs that look alike come from different tables or passages of the source.

Legend:
[1] = test system: tumor growth; experiment: anti-tumor activity of GABA-linked conjugate compared to the unconjugated anticancer agent (model not given); type: in vivo; settings: model not specified
Excerpt: The anti-tumor activity of LOC-GABA-doxorubicin was studied in three tumor models.

[2] = test system: Madison 109 (M109) mouse lung carcinoma
Protocol: In all of the following in vivo experiments, the parent compound, doxorubicin, was injected intravenously (i.v.) in saline, while the fatty acid conjugates of doxorubicin were injected i.v. in 10% Cremophor® EL-P/10% ethanol/80% saline. The dosing schedule was Q3D×5.
T-C in this assay is defined as the time in days for the drug-treated tumors to double their mass three times subtracted […] to double their mass three times.

[3] = test system: HT-29 human colon tumor; experiment: nude mouse xenograft model of the HT-29 human colon tumor; type: in vivo; settings: for Complete Regressions / Days Delay T-C / Drug-related Deaths: nude mouse
Protocol: (§1) The dosing schedule was Q3D×5.
In the nude mouse xenograft model of the HT-29 human colon tumor (Table 3), doxorubicin produced a T-C delay of 15.3 days at the MTD dose of 6 mg/kg, whereas P-367 (LOC-GABA-doxorubicin) produced a T-C delay of 32 days at 50 mg/kg and 22 at 25 mg/kg. Note that the activity of the lowest dose of LOC-GABA-doxorubicin is approximately equivalent to the highest, MTD of doxorubicin itself.

[4] = test system: MDA-MB-435 human breast tumor; experiment: nude mouse xenograft model of the MDA-MB-435 human breast tumor; type: in vivo; settings: for Complete Regressions / Days Delay T-C / Drug-related Deaths: nude mouse
Protocol: as §1
In the nude mouse xenograft model of the MDA-MB-435 human breast tumor (Table 4), doxorubicin produced a T-C delay of 14 days at the approximate MTD dose of 6 mg/kg (1/10 drug-related deaths). In the same model, LOC-GABA-doxorubicin produced a T-C delay of 13 days at 50 mg/kg (6/10 drug-related deaths) and 1.5 days at 25 mg/kg (0 drug-related deaths).

[5] = test system: M109-Lung Tumor; experiment: M109-Lung Tumor Model (Table 5, second study with OOC-GABA-doxorubicin); type: in vivo, mouse
Excerpt: as §1

[6] = Toxicology: maximum tolerated dose, i.v. Q3D×5; settings: mouse, in vivo, iv, i.v. 5 times on a once every three day schedule
Excerpt: as §1

[7] = cited from earlier work
[8] = Solubility in solvents/excipients; type: physicochemical
Excerpt: Table 7 summarizes the solubility of LOC-GABA-doxorubicin in several solvents.

[9] = Stability in mouse serum/plasma at 37° C., HPLC; type: in vitro ADME
Protocol: […] Serum samples added with only ethanol/Cremophor® were used as controls.
Aliquots (100 μL) were taken from the spiked samples at 0, 1, 4, 8 and 24 h time intervals. Proteins were precipitated from the spiked solutions by the addition of 300 μL of acetonitrile. The suspensions were centrifuged and the supernatant transferred to separate microfuge tubes. The precipitate was washed twice with 300 μL of 90% acetonitrile. The wash solutions were combined with the supernatant and evaporated to dryness using a Centrivap Concentrator. The residue was then dissolved in 100 μL of methanol. Vortex mixing and sonication for 30 sec each were used to help dissolve the residue. The solution was then centrifuged at 10,000 rpm for 15 min. A 20 μL aliquot of the supernatant was analyzed by HPLC (Phenomenex column, C18, 250×4.6 mm, 5 u) using the following gradient conditions: […]
UV detection: 487 nm; column temperature: 40° C.; flow rate: 1 mL/min. Analytes were quantitated by comparison of peak areas from direct injections of standard solutions with those obtained from samples subjected to the extraction procedure. The percent recovery of spiked analytes was calculated by comparison of the sample peak areas before incubation (time: 0 h) with those subjected to incubation at 37° C. […]

## CCC=CCC=CCC=CCC=CCC=CCC=CCCC(=O)NCCCC(=O)OC(C(=O)OC1CC2(O)C(OC(=O)c3ccccc3)C3C4(OC(C)=O)COC4CC(O)C3(C)C(=O)C(OC(C)=O)C(=C1C)C2(C)C)C(NC(=O)c1ccccc1)c1ccccc1 (centres unmarked)
[1]
  anti-tumor activity compared to the unconjugated drug: superior activity in inhibiting tumor growth

## CC/C=C\C/C=C\C/C=C\C/C=C\C/C=C\C/C=C\CCC(=O)NCCCC(=O)O[C@H]1C[C@H]2OC[C@@]2(OC(C)=O)[C@H]2[C@H](OC(=O)c3ccccc3)[C@]3(O)C[C@H](OC(=O)[C@H](O)[C@@H](NC(=O)c4ccccc4)c4ccccc4)C(C)=C([C@@H](OC(C)=O)C(=O)[C@]12C)C3(C)C
[1]
  anti-tumor activity compared to the unconjugated drug: did not show superior anti-tumor activity

## COc1cccc2c1C(=O)c1c(O)c3c(c(O)c1C2=O)C[C@@](O)(C(=O)CO)C[C@@H]3O[C@H]1C[C@H](N)[C@H](O)[C@H](C)O1 [Doxorubicin, reference compound]
[2]; 1 mg/kg i.v. Q3D×5
  Complete Regressions: 0
  Drug-related Deaths: 0/5
  Tumor Growth Delay T-C: 2.6 days
[2]; 2 mg/kg i.v. Q3D×5
  Complete Regressions: 0
  Drug-related Deaths: 0/5
  Tumor Growth Delay T-C: 2.2 days
[2]; 4 mg/kg i.v. Q3D×5
  Complete Regressions: 0
  Drug-related Deaths: 0/5
  Tumor Growth Delay T-C: 4.0 days
[2]; 6 mg/kg i.v. Q3D×5
  Complete Regressions: 0
[2]; 6 mg/kg i.v. Q3D×5, time for tumors to double their mass three times, treated vs vehicle
  Tumor Growth Delay T-C: 5.7 days
[2]; at any dose
  complete responses: no complete responses
[3]; 2 mg/kg i.v. Q3D×5
  Complete Regressions: 0
  Days Delay T-C: 2.2 days
  Drug-related Deaths: 0/10
[3]; 4 mg/kg i.v. Q3D×5
  Complete Regressions: 0
  Days Delay T-C: 4.0 days
  Drug-related Deaths: 0/10
[3]; 6 mg/kg i.v. Q3D×5
  Complete Regressions: 0
  Days Delay T-C: 5.7 days
  Drug-related Deaths: 0/10
[3]; 6 mg/kg i.v. Q3D×5, listed as doxorubicin
  Days Delay T-C: 15.3 days
[4]; 2 mg/kg i.v. Q3D×5
  Complete Regressions: 0
  Days Delay T-C: 0.0 days
  Drug-related Deaths: 0/5
[4]; 4 mg/kg i.v. Q3D×5
  Complete Regressions: 0
  Days Delay T-C: 6.6 days
  Drug-related Deaths: 0/5
[4]; 6 mg/kg i.v. Q3D×5
  Complete Regressions: 0
  Days Delay T-C: 14 days
  Drug-related Deaths: 1/10
[5]; 2 mg/kg i.v. Q3D×5
  Complete Regressions: 0
  Days Delay T-C: 0.0 days
  Drug-related Deaths: 0/5
[5]; 4 mg/kg i.v. Q3D×5
  Complete Regressions: 0
  Days Delay T-C: 1.4 days
  Drug-related Deaths: 0/5
[5]; 6 mg/kg i.v. Q3D×5
  Complete Regressions: 0
  Days Delay T-C: 0.9 days
  Drug-related Deaths: 0/5
[5]; 8 mg/kg i.v. Q3D×5
  Complete Regressions: 0
  Days Delay T-C: 4.6 days
  Drug-related Deaths: 0/5
[6]
  MTD: 6 mg/kg
[6]; nude
  MTD: ~6 mg/kg
[7]; cumulative dose 550 mg/m^2
  incidence of cardiomyopathy: 7%
[7]; cumulative dose 600 mg/m^2
  incidence of cardiomyopathy: 15%
[7]; cumulative dose 700 mg/m^2
  incidence of cardiomyopathy: 30%

## CCCCC/C=C\C/C=C\CCCCCCCCOC(=O)NCCCC(=O)N[C@H]1C[C@H](O[C@H]2C[C@](O)(C(=O)CO)Cc3c(O)c4c(c(O)c32)C(=O)c2c(OC)cccc2C4=O)O[C@@H](C)[C@H]1O [LOC-GABA-doxorubicin, linoleyl alcohol-GABA-doxorubicin]
[2]; 50 mg/kg i.v. Q3D×5
  Drug-related Deaths: 0/5
  Tumor Growth Delay T-C: 28 days
[2]; 75 mg/kg i.v. Q3D×5
  Complete Regressions: 0
  Drug-related Deaths: 0/5
  Tumor Growth Delay T-C: 25 days
[2]; 100 mg/kg i.v. Q3D×5
  Complete Regressions: 0
  Drug-related Deaths: 4/5
[2]; 150 mg/kg i.v. Q3D×5
  Complete Regressions: 0
  Drug-related Deaths: 4/5
[3]; 12.5 mg/kg i.v. Q3D×5
  Complete Regressions: 0
  Days Delay T-C: 5.4 days
  Drug-related Deaths: 0/10
[3]; 25 mg/kg i.v. Q3D×5
  Complete Regressions: 0
  Days Delay T-C: 22 days
  Drug-related Deaths: 0/10
[3]; 50 mg/kg i.v. Q3D×5
  Complete Regressions: 0
  Days Delay T-C: 32 days
  Drug-related Deaths: 0/10
[3]; 75 mg/kg i.v. Q3D×5
  Complete Regressions: 0
  Days Delay T-C: 34 days
  Drug-related Deaths: 6/10
[3]; HT29 human colon carcinoma xenograft
  anti-tumor activity compared to doxorubicin: activity superior to doxorubicin; also recorded: superior anti-tumor activity
[4]; 12.5 mg/kg i.v. Q3D×5
  Complete Regressions: 0
  Days Delay T-C: -2.0 days
  Drug-related Deaths: 0/10
[4]; 25 mg/kg i.v. Q3D×5
  Complete Regressions: 0
  Days Delay T-C: 1.5 days
  Drug-related Deaths: 0 and 0/10
[4]; 50 mg/kg i.v. Q3D×5
  Complete Regressions: 0
  Days Delay T-C: 13 days
  Drug-related Deaths: 6/10
[4]; 75 mg/kg i.v. Q3D×5
  Complete Regressions: 0
  Days Delay T-C: 21 days
  Drug-related Deaths: 9/10
[4]; MDA-MB-435 human breast carcinoma xenograft
  anti-tumor activity compared to doxorubicin: active, but somewhat less active than doxorubicin and somewhat less efficacious than doxorubicin and not
[5]; 35 mg/kg i.v. Q3D×5
  Complete Regressions: 0
  Days Delay T-C: 1.1 days
  Drug-related Deaths: 0/5
[5]; 50 mg/kg i.v. Q3D×5
  Complete Regressions: 0
  Days Delay T-C: 5.2 days
  Drug-related Deaths: 0/5
[5]; 65 mg/kg i.v. Q3D×5
  Complete Regressions: 0
  Days Delay T-C: 9.3 days
  Drug-related Deaths: 0/5
[5]; 80 mg/kg i.v. Q3D×5
  Complete Regressions: 0
  Days Delay T-C: 9.5 days
  Drug-related Deaths: 0/5
[6]
  MTD: 50 to 75 mg/kg
[8]; aqueous with cosolvent or surfactant or cyclodextrin, Cremophor ® EL-P:ethanol:saline (10:10:80)
  solubility: 16.8 mg/mL (≈ 18.2 mM)
[8]; dimethyl isosorbide (DMI), organic solvent or mixture
  solubility: 490 mg/mL (≈ 533 mM)
[8]; ethanol, organic solvent or mixture
  solubility: 252 mg/mL (≈ 274 mM)
[9]; 10 mg/mL formulation pH 7.5, 10 parts to 90 parts plasma
  time stable in mouse plasma: more than 8 hours
[9]; mouse plasma, 24 hours
  drug still present: over 90%
[1]
  anti-tumor activity compared to the unconjugated drug: superior

## CCCCCCCC/C=C\CCCCCCCCOC(=O)NCCCC(=O)N[C@H]1C[C@H](O[C@H]2C[C@](O)(C(=O)CO)Cc3c(O)c4c(c(O)c32)C(=O)c2c(OC)cccc2C4=O)O[C@@H](C)[C@H]1O [OOC-GABA-doxorubicin, oleyl alcohol-GABA-doxorubicin]
[5]; 50 mg/kg i.v. Q3D×5
  Complete Regressions: 0
  Days Delay T-C: 10.0 days
  Drug-related Deaths: 0/5
[5]; 75 mg/kg i.v. Q3D×5
  Complete Regressions: 0
  Days Delay T-C: 8.9 days
  Drug-related Deaths: 0/5
[5]; 100 mg/kg i.v. Q3D×5
  Complete Regressions: 0
  Days Delay T-C: 10.3 days
  Drug-related Deaths: 1/5
[5]; 125 mg/kg i.v. Q3D×5
  Complete Regressions: 0
  Drug-related Deaths: 3/5
[5]; M109 mouse lung carcinoma model
  anti-tumor activity compared to doxorubicin: superior anti-tumor activity
